Tests used:
NCI/ADR-RES cells [1] = test: Viability of NCI/ADR-RES cells cultured in the presence of doxorubicin (WST assay); format: cell-based; conditions: Homo sapiens, 20 ug/mL doxorubicin, 37° C. for 2 hours, fresh media, 2 days, FIG. 1, read-out: NCI/ADR-RES cells survived (viability)
Procedure: Tumor cells having a resistance against doxorubicin, i.e., NCI/ADR-RES cells, were cultured in the presence of doxorubicin and the viability of the cells was evaluated. NCI/ADR-RES cells are tumor cells derived from OVCAR-8.
NCI/ADR-RES cells were incubated in minimum essential media (MEM) containing various concentrations of doxorubicin (0.1, 0.5, 1.0, 2.5, 5.0, 10 or 20 ug/mL), 10 volume % fetal bovine serum (FBS), and 1 wt % penicillin-streptomycin (PS) at 37° C. for 2 hours. After the MEM was replaced with fresh media, the cells were incubated at 37° C. for 2 days. The viability of the cells was evaluated by water soluble tetrazolium (WST) assay. FIG. 1 is a graph showing the viability of NCI/ADR-RES cells when being cultured in the presence of doxorubicin.

[2] = Amounts of drugs entrapped in liposomes by loading method (HPLC); format: physicochemical
Procedure: Two types of drugs, i.e., doxorubicin and verapamil, were loaded in the liposome. The loading process was performed using an ammonium sulfate gradient method (J. Control. Release 2009, 139, 73-80) or a pH-gradient method (Biochimica et Biophysica Acta 1985, 816, 294-302). In the loading process by the ammonium sulfate gradient method, a drug was added to the liposome solution formed of liposomes with 250 mM or 150 mM of ammonium sulfate inside and 25 mM of Tris-HCl buffer outside. The loading process was performed at a temperature of 37° C. for 60 minutes. In the loading process by the pH-gradient method, a drug was added to the liposome solution formed of liposomes with 300 mM of citrate buffer (pH 4.0) inside and 20 mM of HEPES buffer (150 mM NaCl, pH 7.4) outside. The loading process was performed at a temperature of 37° C. for 60 minutes.
The prepared liposome solution was passed through PD-10 (GE Healthcare) desalting column by flowing physiological saline therethrough to remove unentrapped drug.
Doxorubicin and verapamil entrapped in the liposomes were analyzed by high performance liquid chromatography (HPLC).
The liposomes co-encapsulating certain amounts of doxorubicin and verapamil were diluted and dissolved in dimethylsulfoxide (DMSO) and then introduced into a HPLC column. The analysis by HPLC was performed by eluting the drugs using KH2PO4/MeCN as an eluent and measuring absorbance thereof at 280 nm.
In the loading process, initial concentrations of doxorubicin and verapamil were 500 μg and 250 μg, respectively, based on 1 mL of the liposome solution.

NCI/ADR-RES cells [3] = conditions: 45° C. for 10 minutes; 10 ug doxorubicin/mL (liposome: +5 ug verapamil/mL); FIG. 7A/7B
Procedure: (§1) In addition, cytotoxicity of the liposome with doxorubicin and verapamil entrapped therein against NCI/ADR-RES cells was confirmed. […] 50% based on the weight of doxorubicin of verapamil, was contained in the liposome. […] In this experiment, NCI/ADR-RES cells were incubated in each of a MEM containing free doxorubicin and a MEM containing the liposome with doxorubicin and verapamil entrapped therein, 10 volume % FBS, and 1 wt % PS at 37° C. for 48 hours. In particular, NCI/ADR-RES cells (5.0×10^4 cells) were cultured in MEM containing 10% (v/v) FBS and 1% penicillin/streptomycin in a well of the 24-well plate for 48 hours. The cultured NCI/ADR-RES cells were treated with the liposomes containing doxorubicin and verapamil at a variety of concentrations, immediately placed in a thermoshaker, and then incubated at 37° C. for 10 minutes. […] Thereafter, the NCI/ADR-RES cells were cultured at 37° C. for 48 hours, and the viability of the NCI/ADR-RES cells was measured using CCK-8 assay kit (Dojindo) by WST (water soluble tetrazolium) assay.
(§2) NCI/ADR-RES cells (5.0×10^4 cells) were cultured in MEM containing 10% (v/v) FBS and 1% penicillin/streptomycin in a well of the 24-well plate for 48 hours. […] Thereafter, the NCI/ADR-RES cells were cultured at 37° C. for 46 hours, and the viability of the NCI/ADR-RES cells was measured using CCK-8 assay kit (Dojindo) by WST assay. […]

NCI/ADR-RES cells [4] = test: cells; conditions: Homo sapiens, 10 min, read-out: cell viability
Procedure: as §1, §2

[5] = ammonium sulfate gradient method, 150 mM ammonium sulfate (inside), 25 mM Tris HCl buffer (outside), initial doxorubicin 500 μg, verapamil 250 μg per 1 mL

amount of entrapped doxorubicin [2, 5] [µg/mL]	amount of entrapped doxorubicin ([2]; ammonium sulfate gradient method, 250 mM ammonium sulfate (inside), 25 mM Tris HCl buffer (outside), initial doxorubicin 500 μg, verapamil 250 μg per 1 mL) [µg/mL]	amount of entrapped doxorubicin ([2]; pH-gradient method, 300 mM citrate buffer (pH 4.0) (inside), 20 mM HEPES buffer (150 mM NaCl, pH 7.4) (outside)) [µg/mL]	SMILES	viability at 20 µg/mL (NCI/ADR-RES cells [1]) [%]	cell viability (NCI/ADR-RES cells [3])	viability at 20 µg/mL (NCI/ADR-RES cells [4]) [%]	amount of entrapped verapamil [2, 5] [µg/mL]
36.5	404	42	COc1cccc2c1C(=O)c1c(O)c3c(c(O)c1C2=O)C[C@@](O)(C(=O)CO)C[C@@H]3O[C@H]1C[C@H](N)[C@H](O)[C@H](C)O1 [Doxorubicin, doxorubicin]	> 70	about 70%	50	
			COc1ccc(CCN(C)CCCC(C#N)(c2ccc(OC)c(OC)c2)C(C)C)cc1OC (racemic) [Verapamil, (RS)-2-(3,4-dimethoxyphenyl)-5-{[2-(3,4-dimethoxyphenyl)ethyl]-(methyl)amino}-2-prop-2-ylpentanenitrile]				1.4

— US20130101666A1, “LIPOSOME INCLUDING ELASTIN-LIKE POLYPEPTIDE CONJUGATED TO MOIETY CONTAINING HYDROPHOBIC GROUP, CHEMOSENSITIZER AND ANTICANCER AGENT AND USE THEREOF” (SAMSUNG ELECTRONICS CO., LTD., priority 2011, published 2013)
